Results as given in paper PMC6499206, “Quantification of Volatile Metabolites Derived From Garlic (Allium sativum) in Human Urine” (Frontiers in Nutrition, 2019).

Experiment: Quantification of garlic-derived metabolites in human urine after ingestion of 3 g raw garlic (SIDA, SAFE, HRGC-MS / HRGC-GC-MS)
Type: in vivo
Conditions: 3 g raw garlic
Source text: Human urine samples were obtained from 18 volunteers (age 22–38 years, mean 27 years; 11 females, 7 males); thereby, one volunteer conducted the whole experimental series twice. At the time of examination, volunteers reported no known illness that might have potentially influenced the metabolism or the excretion of urine. The test persons were instructed to avoid foods that were rich in sulfur-containing substances at the testing day as well as 2 days preceding the testing day, namely garlic, onion, wild garlic, chives, cabbage, and leek, and were only allowed to consume the garlic sample provided in the course of the experiments. Additionally, subjects were asked to keep records of the food (including food supplements) and beverages they consumed during these 3 testing days. Generally, the overall panelists' requirements were in accordance with our previous studies ([5], [16]).
On the sampling day, the outer garlic cloves of a whole garlic bulb were peeled and cut into ~3 mm cubes by using a garlic cutter (Genius GmbH, Limburg/Lahn, Germany). Subsequently these cubes were thoroughly mixed and aliquoted into 3 g portions. Three to four test persons conducted the experiment at the same day. Each test person was asked to ingest a garlic portion of 3 g. In total, eight consecutive urine samples were provided by each test person, comprising one whole urine set. The samples were collected in sterile brown glass bottles, with sampling times as follows: one sample was provided directly prior to garlic consumption. The series of the second to eighth sample was then obtained at about 0.5, 1, 2, 4, 6, 8, and 24 h after garlic consumption, respectively. Between the first urine sample (prior to garlic consumption) and the seventh urine sample (8 h after garlic consumption) test persons only spent urine at the specific time points mentioned before. Another sample was provided at the next morning (24 h after garlic consumption). Between the samples provided 8 and 24 h after garlic consumption no urine was collected. All samples were immediately placed into a −80°C freezer and were kept frozen until further analysis.
The samples of each set were termed according to their sampling time. The following list provides the time intervals that are related to the respective sample name: • - pre: before garlic consumption • - 0.5 h post: 0.4–0.8 h after garlic consumption • - 1 h post: 0.9–1.3 h after garlic consumption • - 2 h post: 1.8 h−2.2 h after garlic consumption • - 4 h post: 3.8–4.4 h after garlic consumption • - 6 h post: 5.8–6.4 h after garlic consumption • - 8 h post: 7.8–8.4 h after garlic consumption • - 24 h post: 23.8–25.6 h after garlic consumption
A creatinine kit (Labor+Technik Eberhard Lehmann GmbH, Berlin, Germany) was used to determine the creatinine content in each urine sample. The determination principle of this kit is based on the reaction of creatinine with picric acid under basic conditions (Jaffé reaction). The formed complex was detected photometrically at a wavelength of 492 nm.
For quantification purposes, the deuterated standards ^2H3-AMS, ^2H3-AMSO, and ^2H3-AMSO2 were added to the sample and stirred for 10 min. Subsequently, DCM was added in a ratio of 1:2 (DCM/human urine; v/v) and this solution was stirred for further 30 min at room temperature. To isolate the volatile fraction from the urine samples we then applied SAFE-distillation ([17]), thereby distilling the respective samples at 50°C. After completion of the distillation process, 10 mL of DCM were applied in each case to rinse the SAFE apparatus and to ensure complete transition of the volatile compounds. This process was repeated with another 10 mL of DCM. After thawing, the obtained aqueous distillate phase was extracted three times with 25 mL DCM. The organic phases were combined, dried over anhydrous Na2SO4 and concentrated to a total volume of 100 μL by means of Vigreux distillation and subsequent micro-distillation at 50°C. […]

**Q.** Which “metabolite concentration in urine, creatinine-normalized” value (U IV, 6 h post (6.08 h)) does the source give for C=CCSC [AMS, allyl methyl sulfide] here?
**A.** 0.04 µg/mmol creatinine

**Q.** And the “metabolite concentration in urine” value (U IV, 8 h post (8.05 h))?
**A.** 0.3 µg/kg

**Q.** And the “metabolite concentration in urine, creatinine-normalized” value (U IV, 8 h post (8.05 h))?
**A.** 0.1 µg/mmol creatinine

**Q.** What about the “metabolite concentration in urine” value (U IV, 24 h post (24.03 h)) of the same compound?
**A.** 0.5 µg/kg

**Q.** And the “metabolite concentration in urine, creatinine-normalized” value (U IV, 24 h post (24.03 h))?
**A.** 0.1 µg/mmol creatinine

**Q.** And the “metabolite concentration in urine” value (U IV, pre (-0.05 h))?
**A.** < LOD^1

**Q.** And the “metabolite concentration in urine, creatinine-normalized” value (U IV, pre (-0.05 h))?
**A.** < LOD^1

**Q.** What about the “metabolite concentration in urine” value (U IX, 0.5 h post (0.67 h)) of the same compound?
**A.** 1.0 µg/kg

**Q.** And the “metabolite concentration in urine, creatinine-normalized” value (U IX, 0.5 h post (0.67 h))?
**A.** 0.9 µg/mmol creatinine

**Q.** What about the “metabolite concentration in urine” value (U IX, 1 h post (1.17 h)) of the same compound?
**A.** 1.5 µg/kg

**Q.** What about the “metabolite concentration in urine, creatinine-normalized” value (U IX, 1 h post (1.17 h)) of the same compound?
**A.** 1.4 µg/mmol creatinine

**Q.** And the “metabolite concentration in urine” value (U IX, 2 h post (1.83 h))?
**A.** 1.4 µg/kg

**Q.** And the “metabolite concentration in urine, creatinine-normalized” value (U IX, 2 h post (1.83 h))?
**A.** 1.2 µg/mmol creatinine

**Q.** What about the “metabolite concentration in urine” value (U IX, 4 h post (4.17 h)) of the same compound?
**A.** 2.5 µg/kg

**Q.** What about the “metabolite concentration in urine, creatinine-normalized” value (U IX, 4 h post (4.17 h)) of the same compound?
**A.** 0.5 µg/mmol creatinine

**Q.** And the “metabolite concentration in urine” value (U IX, 6 h post (6.08 h))?
**A.** 1.7 µg/kg

**Q.** And the “metabolite concentration in urine, creatinine-normalized” value (U IX, 6 h post (6.08 h))?
**A.** 0.5 µg/mmol creatinine

**Q.** And the “metabolite concentration in urine” value (U IX, 8 h post (8.08 h))?
**A.** 0.8 µg/kg

**Q.** And the “metabolite concentration in urine, creatinine-normalized” value (U IX, 8 h post (8.08 h))?
**A.** 0.1 µg/mmol creatinine

**Q.** And the “metabolite concentration in urine” value (U IX, 24 h post (24.00 h))?
**A.** traces^1

**Q.** What about the “metabolite concentration in urine, creatinine-normalized” value (U IX, 24 h post (24.00 h)) of the same compound?
**A.** traces^1

**Q.** What about the “metabolite concentration in urine” value (U IX, pre (-0.08 h)) of the same compound?
**A.** < LOD^1

**Q.** What about the “metabolite concentration in urine, creatinine-normalized” value (U IX, pre (-0.08 h)) of the same compound?
**A.** < LOD^1

**Q.** What about the “metabolite concentration in urine” value (U V, 0.5 h post (0.50 h)) of the same compound?
**A.** 0.5 µg/kg

**Q.** What about the “metabolite concentration in urine, creatinine-normalized” value (U V, 0.5 h post (0.50 h)) of the same compound?
**A.** 0.7 µg/mmol creatinine

**Q.** And the “metabolite concentration in urine” value (U V, 1 h post (1.00 h))?
**A.** 0.7 µg/kg

**Q.** What about the “metabolite concentration in urine, creatinine-normalized” value (U V, 1 h post (1.00 h)) of the same compound?
**A.** 0.8 µg/mmol creatinine

**Q.** What about the “metabolite concentration in urine” value (U V, 2 h post (2.00 h)) of the same compound?
**A.** 0.7 µg/kg

**Q.** What about the “metabolite concentration in urine, creatinine-normalized” value (U V, 2 h post (2.00 h)) of the same compound?
**A.** 0.8 µg/mmol creatinine

**Q.** And the “metabolite concentration in urine” value (U V, 4 h post (4.00 h))?
**A.** 0.9 µg/kg

**Q.** And the “metabolite concentration in urine, creatinine-normalized” value (U V, 4 h post (4.00 h))?
**A.** 0.3 µg/mmol creatinine

**Q.** What about the “metabolite concentration in urine” value (U V, 6 h post (6.00 h)) of the same compound?
**A.** 0.7 µg/kg

**Q.** And the “metabolite concentration in urine, creatinine-normalized” value (U V, 6 h post (6.00 h))?
**A.** 0.1 µg/mmol creatinine

**Q.** What about the “metabolite concentration in urine” value (U V, 8 h post (8.00 h)) of the same compound?
**A.** 0.3 µg/kg

**Q.** What about the “metabolite concentration in urine, creatinine-normalized” value (U V, 8 h post (8.00 h)) of the same compound?
**A.** 0.2 µg/mmol creatinine

**Q.** What about the “metabolite concentration in urine” value (U V, 24 h post (24.00 h)) of the same compound?
**A.** traces^1

**Q.** And the “metabolite concentration in urine, creatinine-normalized” value (U V, 24 h post (24.00 h))?
**A.** traces^1

**Q.** And the “metabolite concentration in urine” value (U V, pre (-0.05 h))?
**A.** < LOD^1

**Q.** What about the “metabolite concentration in urine, creatinine-normalized” value (U V, pre (-0.05 h)) of the same compound?
**A.** < LOD^1

**Q.** What about the “metabolite concentration in urine” value (U VI, 0.5 h post (0.50 h)) of the same compound?
**A.** 1.1 µg/kg

**Q.** What about the “metabolite concentration in urine, creatinine-normalized” value (U VI, 0.5 h post (0.50 h)) of the same compound?
**A.** 0.5 µg/mmol creatinine

**Q.** And the “metabolite concentration in urine” value (U VI, 1 h post (1.00 h))?
**A.** 0.7 µg/kg

**Q.** And the “metabolite concentration in urine, creatinine-normalized” value (U VI, 1 h post (1.00 h))?
**A.** 0.6 µg/mmol creatinine

**Q.** And the “metabolite concentration in urine” value (U VI, 2 h post (2.00 h))?
**A.** 1.0 µg/kg

**Q.** What about the “metabolite concentration in urine, creatinine-normalized” value (U VI, 2 h post (2.00 h)) of the same compound?
**A.** 0.9 µg/mmol creatinine

**Q.** What about the “metabolite concentration in urine” value (U VI, 4 h post (4.00 h)) of the same compound?
**A.** 1.2 µg/kg

**Q.** And the “metabolite concentration in urine, creatinine-normalized” value (U VI, 4 h post (4.00 h))?
**A.** 0.3 µg/mmol creatinine

**Q.** And the “metabolite concentration in urine” value (U VI, 6 h post (6.00 h))?
**A.** 0.9 µg/kg

**Q.** What about the “metabolite concentration in urine, creatinine-normalized” value (U VI, 6 h post (6.00 h)) of the same compound?
**A.** 0.2 µg/mmol creatinine

**Q.** And the “metabolite concentration in urine” value (U VI, 8 h post (8.00 h))?
**A.** 0.5 µg/kg

**Q.** And the “metabolite concentration in urine, creatinine-normalized” value (U VI, 8 h post (8.00 h))?
**A.** 0.1 µg/mmol creatinine

**Q.** And the “metabolite concentration in urine” value (U VI, 24 h post (24.17 h))?
**A.** traces^1

**Q.** What about the “metabolite concentration in urine, creatinine-normalized” value (U VI, 24 h post (24.17 h)) of the same compound?
**A.** traces^1

**Q.** And the “metabolite concentration in urine” value (U VI, pre (-0.05 h))?
**A.** < LOD^1

**Q.** And the “metabolite concentration in urine, creatinine-normalized” value (U VI, pre (-0.05 h))?
**A.** < LOD^1

**Q.** And the “metabolite concentration in urine” value (U VII, 0.5 h post (0.50 h))?
**A.** 0.6 µg/kg

**Q.** What about the “metabolite concentration in urine, creatinine-normalized” value (U VII, 0.5 h post (0.50 h)) of the same compound?
**A.** 0.5 µg/mmol creatinine

**Q.** What about the “metabolite concentration in urine” value (U VII, 1 h post (1.08 h)) of the same compound?
**A.** 1.3 µg/kg
